Reference: patent US20250152660A1, “SCO-spondin-derived polypeptides for treating biological barriers dysfunction” (AXOLTIS PHARMA, priority 2021, published 2025)
Several values for one entry are separate records, joined by “and”; a condition that tells them apart may be missing. Equal values may be shown once. Bridges are numbered along the chain shown (N, C = ends). Where no end group is shown, it is not given here.

Assays:
[1] = tested on: primary human umbilical vein endothelial cells (HUVEC); experiment: Transendothelial electrical resistance (TEER) of primary human umbilical vein endothelial cell monolayer; type: cell-based; settings: for TEER change relative to control, Average: average of N1-N9, control = 100; for TEER change relative to control: control average = 100, individual replicates N1-N9
Experimental: To determine the effect of NX218 on transendothelial electrical resistance (TEER) of primary human umbilical vein endothelial cells (HUVEC), cells were grown on a semi-permeable membrane inserted in culture wells in presence or absence of NX218 and the TEER was recorded using electrodes placed on each side of the membrane and a resistance meter.
HUVEC (PromoCell, C-12208) were cultured in EBM-2 basal media supplemented with bullet kit reagents (both from Lonza) in a 5% CO2 incubator at 37° C.
HUVEC were grown on 6.5-mm-diameter, 0.4-μm-pore, polyester membrane HTS Transwell inserts (5×10^4 cells per well containing 200 μL and 800 μL of culture medium in the apical and basolateral compartments respectively). Two days after seeding, cells were treated with vehicle or NX218 (1, 10 and 100 μM) for 1 or 3 days. TEER values were measured using an EVOM resistance meter fitted with “chopstick” electrodes. One electrode was placed in the apical chamber and another one in the basolateral chamber. Before measurements, chambers were replaced with fresh medium.

[2] = tested on: Claudin-5 at tight junction of mouse brain endothelial bEnd.3 cells; experiment: Claudin-5 immunocytochemistry at tight junction in mouse brain endothelial cell cultures; type: cell-based
Experimental: To understand the effect of NX218 on the TEER and permeability of mouse brain endothelial cells in examples 3 and 4, the levels of the tight junction protein Claudin-5 were assessed using immunocytochemistry.
Mouse brain endothelial cells (bEnd.3, American Type Culture Collection) were cultured in DMEM supplemented with 10% fetal FBS and 2 mM sodium pyruvate in a 5% CO2 incubator at 37° C.
bEnd.3 cells were seeded on 1% fibronectin-coated Nunc Lab-Tek II Chamber Slides in culture medium (1×10^5 cells per well in 300 μL). Two days after seeding, cells were treated with vehicle or NX218 (1, 10 and 100 μM) for 1, 2 or 3 days. Cells were then fixed for 10 min at room temperature (RT) with 4% paraformaldehyde in phosphate buffered saline (PBS), washed twice with PBS and incubated with 5% normal goat serum and 0.05% Triton X-100 in PBS for 1 h at RT before overnight incubation with polyclonal rabbit anti-claudin-5 ( 1/100; 34-1600, Invitrogen) at 4° C. Cells were then washed three times with PBS and incubated with goat anti-rabbit Cy3 secondary antibody ( 1/500; ab6939, Abcam) for 2 h at RT and counterstained with Hoechst 33258 to visualize nuclei. The slide was removed from the chamber and mounted with Aqua Poly/Mount before visualization by confocal laser scanning/microscopy. Claudin-5 immunoreactivity (intensity) at membrane localization was finally quantified to evaluate Claudin-5 protein levels. The data are expressed as a percentage of the control condition.
A second independent experiment using the protocol described at example 5 was performed. Pooling the data from the 2 experiments (the first experiment was done in triplicate, the 2nd in duplicate, n=5) improves the statistical power and allow to reach statistical significance for a tendency observed at 72 hours timepoint.

W-S-G-W-S-S-C-S-R-S-C-G (WSGWSSCSRSCG; disulfide 7-11 (inferred)) [NX218]
TEER change relative to control, Average ([1]; NX218 1 μM, 24 hours): 104 | TEER change relative to control ([1]; NX218 1 μM, 24 hours): 101.3 (3×) and 95.36 (2×) and 89.4 and 119.2 (2×) and 113.2 | TEER change relative to control, Average ([1]; NX218 1 μM, 72 hours): 101.1 | TEER change relative to control ([1]; NX218 1 μM, 72 hours): 113.1 (2×) and 97.71 and 87.43 and 82.29 and 92.57 and 123.4 and 128.6 and 72 | TEER change relative to control, Average ([1]; NX218 10 μM, 24 hours): 119.2 | TEER change relative to control ([1]; NX218 10 μM, 24 hours): 101.3 (2×) and 119.2 and 149 (2×) and 143 and 89.4 and 113.2 and 107.3 | TEER change relative to control, Average ([1]; NX218 10 μM, 72 hours): 109.7 | TEER change relative to control ([1]; NX218 10 μM, 72 hours): 97.71 and 118.3 and 123.4 and 87.43 and 102.9 and 108 (2×) and 128.6 and 113.1 | TEER change relative to control, Average ([1]; NX218 100 μM, 24 hours): 158.9 | TEER change relative to control ([1]; NX218 100 μM, 24 hours): 137.1 and 149 and 143 (2×) and 172.8 and 184.8 (2×) and 155 and 160.9 | TEER change relative to control, Average ([1]; NX218 100 μM, 72 hours): 131.4 | TEER change relative to control ([1]; NX218 100 μM, 72 hours): 144 (2×) and 138.9 and 108 (2×) and 123.4 and 133.7 and 154.3 and 128.6 | Resistance (TEER), result in words ([1]; NX218 at 100 μM for 1 or 3 days, compared with vehicle): significantly increased in a dose dependent manner | Claudin-5 levels, result in words ([2]; 24 hours, NX218 at 10 and 100 μM): significant increase in Claudin-5 levels | Expression of Claudin-5 at tight junction ([2]; FIG. 3, 24-hour treatment): increases the expression of Claudin-5 at tight junction | Expression of Claudin-5 at tight junction ([2]; FIG. 5, 72-hour treatment): increases the expression of Claudin-5 at tight junction | Expression of Claudin-5 at tight junction, Average ([2]; NX218 1 μM, 24 hours, bEnd.3, average of N1-N6): 112.5 % of Control | Expression of Claudin-5 at tight junction ([2]; NX218 1 μM, 24 hours, bEnd.3, individual replicates N1-N6): 108.1 % of Control and 99.96 % of Control and 119.3 % of Control and 99.61 % of Control and 140.4 % of Control and 107.5 % of Control | Expression of Claudin-5 at tight junction, Average ([2]; NX218 1 μM, 48 hours, bEnd.3, average of N1-N6): 80.63 % of Control | Expression of Claudin-5 at tight junction ([2]; NX218 1 μM, 48 hours, bEnd.3, individual replicates N1-N6): 76.07 % of Control and 52.45 % of Control and 76.37 % of Control and 93.88 % of Control and 102.1 % of Control and 82.89 % of Control | Expression of Claudin-5 at tight junction, Average ([2]; NX218 1 μM, 72 hours, bEnd.3, first experiment (Table 9), average of N1-N4): 81.69 % of Control | Expression of Claudin-5 at tight junction ([2]; NX218 1 μM, 72 hours, bEnd.3, first experiment (Table 9), individual replicates N1-N4): 77.15 % of Control and 90.23 % of Control and 103.8 % of Control and 55.53 % of Control | Expression of Claudin-5 at tight junction, Average ([2]; NX218 1 μM, 72 hours, bEnd.3, pooled data of 2 experiments (Table 12), average of N1-N7): 96.00 % of Control | Expression of Claudin-5 at tight junction ([2]; NX218 1 μM, 72 hours, bEnd.3, pooled data of 2 experiments (Table 12), individual replicates N1-N7): 86.80 % of Control and 107.60 % of Control and 99.90 % of Control and 104.20 % of Control and 92.70 % of Control and 103.50 % of Control and 77.10 % of Control | Expression of Claudin-5 at tight junction, Average ([2]; NX218 10 μM, 24 hours, bEnd.3, average of N1-N6): 151.7 % of Control | Expression of Claudin-5 at tight junction ([2]; NX218 10 μM, 24 hours, bEnd.3, individual replicates N1-N6): 126.9 % of Control and 154.4 % of Control and 137 % of Control and 121.3 % of Control and 169.4 % of Control and 200.9 % of Control | Expression of Claudin-5 at tight junction, Average ([2]; NX218 10 μM, 48 hours, bEnd.3, average of N1-N6): 97.8 % of Control | Expression of Claudin-5 at tight junction ([2]; NX218 10 μM, 48 hours, bEnd.3, individual replicates N1-N6): 66.36 % of Control and 83.18 % of Control and 120.8 % of Control and 145.7 % of Control and 97.51 % of Control and 73.25 % of Control | Expression of Claudin-5 at tight junction, Average ([2]; NX218 10 μM, 72 hours, bEnd.3, first experiment (Table 9), average of N1-N4): 70.23 % of Control | Expression of Claudin-5 at tight junction ([2]; NX218 10 μM, 72 hours, bEnd.3, first experiment (Table 9), individual replicates N1-N4): 56.03 % of Control and 94.63 % of Control and 58.42 % of Control and 71.86 % of Control | Expression of Claudin-5 at tight junction, Average ([2]; NX218 10 μM, 72 hours, bEnd.3, pooled data of 2 experiments (Table 12), average of N1-N7): 97.80 % of Control
